# Measured values taken from paper PMC9645260, “Small-molecule inhibitors of P-Rex guanine-nucleotide exchange factors” (Small GTPases, 2022).
# Tests used:
# [1] = tested on: primary mouse neutrophils; experiment: Neutrophil ROS production, fMLP-stimulated; format: cell-based; settings: 10 µM fMLP
# Experimental: Prex^−/− mice (Prex1^−/−Prex2^−/−) with general P-Rex deficiency were described previously and were compared to Prex^+/+ (Prex1^+/+Prex2^+/+) control mice on the same genetic background (C57Bl6/129Ola backcrossed seven times to C57Bl6). Mice were group-housed (up to 5) under specific opportunistic pathogen-free isolator conditions in Babraham’s small animal barrier facility that uses 12 h light/dark cycles with dusk and dawn settings, and were fed chow diet and water ad libitum. Mice from both sexes were used for experiments, at young-adult age (between 8 and 14 weeks), and were sex- and age-matched between genotypes within experiments. […]
# Mature primary neutrophils were isolated from the bone marrow of age- and sex-matched Prex^+/+ and Prex^−/− mice freshly each day at 4°C, using Percoll^Plus (GE Healthcare) gradient, as described, using endotoxin-free media throughout. Isolated neutrophils were 70–90% pure, as assessed by KwikDiff staining of cytospins. ROS production was measured by real-time chemiluminescence assay as described, except that neutrophils were incubated with PREX-in1 before the assay. […] Real-time ROS production was recorded in a Berthold MicroLumat Plus luminometer (Berthold Technologies) at 37°C, for 2.5 min with fMLP stimulation or for 10 min with PMA stimulation. […]
# P-Rex1 DHPH domain = molecular target: T1, P-Rex1 DHPH domain (Homo sapiens, UniProt Q8TCU6); experiment: Mant-GTP GEF activity assay; format: biochemical
# T1 construct: 100 nM EE-P-Rex1 DHPH domains (PREX-in1, compounds 2–10 and 30–128); made in house; host or cells: Sf9 cells (baculovirus)
# T1 sequence (Q8TCU6 49-392 limits assumed): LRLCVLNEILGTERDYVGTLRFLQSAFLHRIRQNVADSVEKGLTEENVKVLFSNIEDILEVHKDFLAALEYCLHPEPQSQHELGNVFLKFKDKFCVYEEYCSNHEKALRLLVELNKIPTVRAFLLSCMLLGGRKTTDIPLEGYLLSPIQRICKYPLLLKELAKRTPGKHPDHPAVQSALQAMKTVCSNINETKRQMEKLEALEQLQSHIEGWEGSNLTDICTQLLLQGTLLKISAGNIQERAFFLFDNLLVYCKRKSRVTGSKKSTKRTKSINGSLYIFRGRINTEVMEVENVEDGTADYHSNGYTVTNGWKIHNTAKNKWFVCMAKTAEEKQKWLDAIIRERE
# Experimental: The mant-GTP GEF activity assay measures the binding of fluorescent 2’/3’-O-(N-Methyl-anthraniloyl)-guanosine-5’-triphosphate (mant)-GTP to Rac, making use of the spectroscopic differences between bound and free mant-GTP. P-Rex1 DHPH domain protein was diluted to 375 nM in exchange buffer (20 mM Tris, pH 7.5 RT, 50 mM NaCl, 200 mM KCl, 4 mM MgCl2, 50 μg/ml fatty-acid-free BSA). The inhibitors PREX-in1 or EHop-016 were diluted to various concentrations in exchange buffer containing 15% DMSO. 4.4 µl P-Rex1 DHPH domain protein were incubated with 1.1 µl PREX-in1 or EHop-016 for 30 min at 30°C, or were mock treated with 1.1 µl vehicle (15% DMSO). 5 μl of the P-Rex1 DHPH / inhibitor mix was then added to 10 µl of a 1.5x reaction mix containing 225 nM bacteria-derived EE-Rac1, 7.5 µM mant-GTP and 15 µM GTP in exchange buffer in a 96-well plate. Final assay concentrations were 150 nM EE-Rac1, 100 nM P-Rex1 DHPH domain, 5 μM mant-GTP, 10 µM GTP, […] fatty-acid-free BSA, 1% DMSO, and the indicated concentrations of inhibitor. Mant-GTP fluorescence was measured in real time in a PHERAstar 384-well fluorescence plate reader at 25°C for 40 min using 360 nm excitation and 440 nm emission.
structure (smiles),measurement,setting,value
"COc1ccc(-c2[nH]nc3c2C(c2ccc(-c4ccc(Cl)cc4)o2)C(C#N)=C(N)O3)cc1 (stereo not shown) [PREX-in1, 6-amino-4-[5-(4-chlorophenyl)-2-furyl]-3-(4-methoxyphenyl)-2,4-dihydropyrano[2,3-c]pyrazole-5-carbonitrile]",inhibition at 1 µM,"[1]; Mus musculus, Neutrophil, 7 min, Prex+/+ neutrophils, 1 µM for 7 min, read-out: inhibition of ROS production overall",50%
same,effect on ROS response,"[1]; Prex-/- neutrophils, 1 µM",did not affect
same,IC50,"P-Rex1 DHPH domain; 150 nM EE-Rac1, 100 nM P-Rex1 DHPH, read-out: IC50 of inhibition of P-Rex1 DHPH in mant-GTP assay",~10 µM
same,effect on P-Rex1 DHPH-dependent mant-GTP loading of Rac1,P-Rex1 DHPH domain; 10 µM,inhibited
